{"source": "patent US20130102469A1", "about": "“Method and compound for removing flora from sewer lines” (Swartz family dba Olvidium, priority 2011, published 2013)", "origin": "cited, not measured here", "system": "tree roots"}
{"molecule": "c1cc[n+]2c(c1)-c1cccc[n+]1CC2", "note": "[Diquat]", "values": [{"measurement": "root kill (in words)", "setting": "sewer line use, roots coated with organic detritus", "value": "spotty and inconsistent root kill"}]}
{"molecule": "CNC(=S)[S-].[Na+]", "note": "[Metham Sodium]", "values": [{"measurement": "root kill", "setting": "inside the pipe and outside the pipe where the gas travels", "value": 100, "unit": "%"}]}
{"molecule": "N#Cc1c(Cl)cccc1Cl", "note": "[Dichlobenil, 2,6 dichlorobenzonitrile]", "values": [{"measurement": "distance back from the contact site over which roots are killed", "setting": "sewer line root control", "value": "1-2 ″"}]}
